Measured values: patent US8389523B2, “Substituted quinoxaline and an agrochemical composition thereof” (Kumiai Chemical Industry Co., Ltd., priority 2007, dated 2013)

What was measured:
Type in all cases: in vivo
Set-up in all cases: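 grade 0 to 5 of growth suppression where 5 is 90% or more and 0 below 10%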
[1] = test system: Echinochloa oryzicola Vasing; assay: Herbicidal effects in paddy field soil treatment (Test Example 1); conditions: paddy field soil treatment; 1000 g of the active ingredient per hectare; wettable powder added dropwise on water surface; 21st day after treatment
Procedure, shortened: (§1)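 Paddy soil pre-emergence test: seeds sown, flooded 3 cm; next day wettable powder in water applied dropwise to water surface, 1000 g a.i./ha; greenhouse; effect rated visually on scale at 21 d post-treatment.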

[2] = test system: Monochoria vaginalis (Burm. f.) Presl var. plantaginea (Roxb.) Solms-Laub.; assay: as above; conditions: paddy field soil treatment; 1000 g of the active ingredient per hectare; wettable powder added dropwise on water surface; 21st day after treatment
Procedure, shortened: as §1

[3] = test system: Scirpus juncoides Roxb. var. ohwianus. T. Koyama; assay: as above; conditions: paddy field soil treatment; 1000 g of the active ingredient per hectare; wettable powder added dropwise on water surface; 21st day after treatment
Procedure, shortened: as §1

[4] = test system: Abutilon theophrasti medicus; assay: Herbicidal effects in upland field soil treatment (Test Example 2); conditions: 1000 g active ingredient per hectare, 21st day after treatment, criteria of Table 138
Procedure, shortened: (§2)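 Seeds sown in upland soil and covered; surface sprayed with water-diluted wettable powder, 1000 g a.i./ha, spray volume 1000 L/ha. Greenhouse growth, visual herbicidal rating at day 21.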

Amaranthus viridis L. [5] = assay: as above; conditions: 1000 g active ingredient per hectare, 21st day after treatment, criteria of Table 138
Procedure, shortened: as §2

[6] = test system: Abutilon theophrasti medicus; assay: Herbicidal effects in upland field foliar treatment (Test Example 3); conditions: criteria of Table 138; for herbicidal effects on Abutilon theophrasti medicus: 1000 g of the active ingredient per hectare, 14th day after the treatment, wettable powder; for herbicidal effect (index) on Abutilon theophrasti medicus: 1000 g active ingredient per hectare, 14th day after treatment
Procedure, shortened: (§3)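 Greenhouse pot test, upland soil; 2-wk-old plants sprayed from above with water-diluted wettable powder (1000 L/ha spray volume, 1000 g a.i./ha). Regrown in greenhouse; visual herbicidal score on day 14 post-treatment.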

Amaranthus viridis L. [7] = assay: as above; conditions: criteria of Table 138; for herbicidal effects on Amaranthus viridis L.: 1000 g of the active ingredient per hectare, 14th day after the treatment, wettable powder; for herbicidal effect (index) on Amaranthus viridis L.: 1000 g active ingredient per hectare, 14th day after treatment
Procedure, shortened: as §3

[8] = test system: Echinochloa crus-galli (L.) P. Beauv. var. crus-galli; assay: as above; conditions: criteria of Table 138; for herbicidal effects on Echinochloa crus-galli (L.) P. Beauv. var. crus-galli: 1000 g of the active ingredient per hectare, 14th day after the treatment, wettable powder; for herbicidal effect (index) on Echinochloa crus-galli (L.) P. Beauv. var. crus-galli: 1000 g active ingredient per hectare, 14th day after treatment
Procedure, shortened: as §3

Row | Structure (SMILES) | Herbicidal effects index, Echinochloa oryzicola Vasing [1] | Herbicidal effects index, Monochoria vaginalis (Burm. f.) Presl var. plantaginea (Roxb.) Solms-Laub. [2] | Herbicidal effects index, Scirpus juncoides Roxb. var. ohwianus. T. Koyama [3] | herbicidal effect (index) on Abutilon theophrasti medicus [4] | herbicidal effect (index) on Amaranthus viridis L. (Amaranthus viridis L. [5]) | herbicidal effects on Abutilon theophrasti medicus [6] | herbicidal effects on Amaranthus viridis L. (Amaranthus viridis L. [7]) | herbicidal effects on Echinochloa crus-galli (L.) P. Beauv. var. crus-galli [8] | herbicidal effect (index) on Abutilon theophrasti medicus [6] | herbicidal effect (index) on Amaranthus viridis L. (Amaranthus viridis L. [7]) | herbicidal effect (index) on Echinochloa crus-galli (L.) P. Beauv. var. crus-galli [8]
1 | O=C1CCCC(O)=C1C(=O)c1nc2ccccc2n(-c2cccc(C(F)(F)F)c2)c1=O [II-39] | 5 | 5 | 5 | 5 | 5 | 5 | 5 | 5 | – | – | –
2 | N#CCCn1c(=O)c(C(=O)C2=C(O)CCCC2=O)nc2ccccc21 [Compound I-103] | 5 | 5 | 5 | 5 | 5 | – | – | – | 5 | 5 | 5
3 | O=C1CCCC(O)=C1C(=O)c1nc2ccccc2n(C2=NOCC2)c1=O [I-131] | 5 | 5 | 5 | 5 | 5 | – | – | – | 5 | 5 | 5
4 | COc1ccc(-n2c(=O)c(C(=O)C3=C(O)CCCC3=O)nc3ccccc32)cc1 [II-62] | 5 | 5 | 5 | 5 | 5 | 5 | 5 | 4 | – | – | –
5 | O=C1CCCC(O)=C1C(=O)c1nc2ccccc2n(-c2ccon2)c1=O [I-144] | 5 | 5 | 5 | 5 | 5 | – | – | – | 5 | 5 | 5
6 | CCOc1cc(-n2c(=O)c(C(=O)C3=C(O)CCCC3=O)nc3ccccc32)ccc1OC [II-217] | 4 | 5 | 5 | 5 | 5 | 5 | 5 | 4 | – | – | –
7 | N#Cc1ccc(-n2c(=O)c(C(=O)C3=C(O)CCCC3=O)nc3ccccc32)cc1 [II-137] | 5 | 5 | 5 | 5 | 5 | 5 | 5 | 5 | – | – | –
8 | CCOCn1c(=O)c(C(=O)C2=C(O)CCCC2=O)nc2ccccc21 [I-50] | 5 | 5 | 5 | 5 | 5 | – | – | – | 5 | 5 | 4
9 | O=C1CCCC(O)=C1C(=O)c1nc2ccccc2n(-c2ccc(Cl)cc2)c1=O [II-13] | 5 | 5 | 5 | 5 | 5 | – | – | – | 5 | 5 | 5
10 | O=C1CCCC(O)=C1C(=O)c1nc2ccccc2n(-c2cccc3ccccc23)c1=O [I-263] | 5 | 5 | 5 | 5 | 5 | – | – | – | 5 | 5 | 5
11 | O=C1CCCC(O)=C1C(=O)c1nc2cccnc2n(-c2cccc(Cl)c2)c1=O [IV-11] | 5 | 5 | 5 | 5 | 5 | 5 | 5 | 5 | – | – | –
12 | CCSCn1c(=O)c(C(=O)C2=C(O)CCCC2=O)nc2ccccc21 [Compound I-72] | 5 | 5 | 5 | 5 | 5 | – | – | – | 5 | 5 | 5
13 | COCCn1c(=O)c(C(=O)C2=C(O)CCCC2=O)nc2cccc(Cl)c21 [I-230] | 5 | 5 | 5 | 4 | 5 | – | – | – | 5 | 5 | 5
14 | O=C1CCCC(O)=C1C(=O)c1nc2cc(F)c(F)cc2n(-c2ccccc2)c1=O [II-260] | 5 | 5 | 5 | 5 | 5 | 5 | 5 | 5 | – | – | –
15 | CC1(C)CC(=O)C(C(=O)c2nc3cccnc3n(-c3cccc(C(F)(F)F)c3)c2=O)=C(O)C1 [IV-41] | 5 | 5 | 5 | 5 | 5 | 5 | 5 | 5 | – | – | –
16 | COc1ccc2nc(C(=O)C3=C(O)CCCC3=O)c(=O)n(-c3ccc(OC(F)F)cc3)c2c1 [II-305] | 5 | 5 | 5 | 5 | 5 | 5 | 5 | 5 | – | – | –
17 | COc1cc(F)c(-n2c(=O)c(C(=O)C3=C(O)CCCC3=O)nc3ccccc32)cc1F [II-219] | 5 | 5 | 5 | 5 | 5 | 5 | 5 | 5 | – | – | –
18 | CC(C)(C)OC(=O)Cn1c(=O)c(C(=O)C2=C(O)CCCC2=O)nc2cccnc21 [III-99] | 5 | 5 | 5 | 5 | 5 | 5 | 5 | 4 | – | – | –
